Columns and labels:
Assay in all cases: Bliss excess, mean over the matrix (fraction); higher = more synergy
[1] = tested on: RPMI-8402 (T-Lymphoblastic Leukemia)
Summary of the method: (§1)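 Bliss excess equals the observed combination effect minus the expected value EA + EB − EA·EB, where EA and EB are the effects of each agent alone. Combination Emax is the second-highest inhibition within the matrix. Inhibition was scaled from CellTiter-Glo 2.0 luminescence, with 0 set by vehicle wells and 1 by blank wells, after 72 hours of two-drug dosing of cells plated in 1536-well plates.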

[2] = tested on: RS4-11 (B-Lymphoblastic Leukemia)
Summary of the method: as §1

[3] = tested on: SNU-1 (Gastric Carcinoma)
Summary of the method: as §1

[4] = tested on: Daudi (Burkitt's Lymphoma)
Summary of the method: as §1

[5] = tested on: SCC90 (Head and Neck Carcinoma)
Summary of the method: as §1

SK-N-DZ (Neuroblastoma) = tested on: SK-N-DZ (Neuroblastoma)
Summary of the method: as §1

[6] = tested on: OVKATE (Ovarian Carcinoma)
Summary of the method: as §1

[7] = tested on: HT-1197 (Bladder Carcinoma)
Summary of the method: as §1

[8] = tested on: NCI-H1944 (Lung Adenocarcinoma)
Summary of the method: as §1

DK-MG (Glioblastoma) = tested on: DK-MG (Glioblastoma)
Summary of the method: as §1

[9] = tested on: SBC-3 (Small Cell Lung Carcinoma)
Summary of the method: as §1

[10] = tested on: SW1463 (Colorectal Carcinoma)
Summary of the method: as §1

[11] = tested on: SBC-5 (Small Cell Lung Carcinoma)
Summary of the method: as §1

GCIY (Gastric Carcinoma) = tested on: GCIY (Gastric Carcinoma)
Summary of the method: as §1

C32 (Melanoma) = tested on: C32 (Melanoma)
Summary of the method: as §1

[12] = tested on: NCI-H1435 (Non-Small Cell Lung Carcinoma)
Summary of the method: as §1

[13] = tested on: COR-L105 (Lung Adenocarcinoma)
Summary of the method: as §1

[14] = tested on: SUP-HD1 (Hodgkin's Lymphoma)
Summary of the method: as §1

[15] = tested on: NCI-H2170 (Squamous Cell Lung Carcinoma)
Summary of the method: as §1

[16] = tested on: BC-1 (B-Cell Non-Hodgkin's Lymphoma)
Summary of the method: as §1

Cn1cnc2c(F)c(Nc3ccc(Br)cc3Cl)c(C(=O)NOCCO)cc21 [Selumetinib] + C=CCn1c(=O)c2cnc(Nc3ccc(N4CCN(C)CC4)cc3)nc2n1-c1cccc(C(C)(C)O)n1 [AZD1775] (first compound max 10 µM, partner max 1 µM)
Bliss excess [1]: -0.0344
Bliss excess [2]: -0.0443
Bliss excess [3]: -0.005
Bliss excess [4]: -0.0995
Bliss excess [5]: -0.0036
Bliss excess (SK-N-DZ (Neuroblastoma)): -0.022
Bliss excess [6]: -0.0524
Bliss excess [7]: 0.0032
Bliss excess [8]: -0.0481
Bliss excess (DK-MG (Glioblastoma)): -0.0548
Bliss excess [9]: -0.0655
Bliss excess [10]: -0.0367
Bliss excess [11]: -0.022
Bliss excess (GCIY (Gastric Carcinoma)): 0.0057
Bliss excess (C32 (Melanoma)): -0.0036
Bliss excess [12]: 0.0007
Bliss excess [13]: 0.0203
Bliss excess [14]: -0.0188
Bliss excess [15]: -0.0838
Bliss excess [16]: 0.0569

Cn1cnc2c(F)c(Nc3ccc(Br)cc3Cl)c(C(=O)NOCCO)cc21 [Selumetinib] + CC(C)n1c(=O)n(C)c2cnc3cc(F)c(-c4ccc(OCCCN5CCCCC5)nc4)cc3c21 [AZD1390] (first compound max 10 µM, 7x7, partner max 0.3 µM)
Bliss excess [1]: -0.039
Bliss excess [2]: -0.0245
Bliss excess [3]: 0.025
Bliss excess [4]: -0.02
Bliss excess [5]: 0.0124
Bliss excess (SK-N-DZ (Neuroblastoma)): -0.0207
Bliss excess [6]: -0.0178
Bliss excess [7]: -0.0565
Bliss excess [8]: -0.0306
Bliss excess (DK-MG (Glioblastoma)): 0.0063
Bliss excess [9]: -0.0592
Bliss excess [10]: -0.0078
Bliss excess [11]: -0.0404
Bliss excess (GCIY (Gastric Carcinoma)): -0.0233
Bliss excess (C32 (Melanoma)): -0.0244
Bliss excess [12]: -0.0087
Bliss excess [13]: 0.0019
Bliss excess [14]: -0.043
Bliss excess [15]: -0.0384
Bliss excess [16]: -0.0023

CC1(C)CCC(CN2CCN(c3ccc(C(=O)NS(=O)(=O)c4ccc(NCC5CCOCC5)c([N+](=O)[O-])c4)c(Oc4cnc5[nH]ccc5c4)c3)CC2)=C(c2ccc(Cl)cc2)C1 [Venetoclax] + C=CCn1c(=O)c2cnc(Nc3ccc(N4CCN(C)CC4)cc3)nc2n1-c1cccc(C(C)(C)O)n1 [AZD1775] (first compound max 1 µM, partner max 1 µM)
Bliss excess [1]: -0.0203
Bliss excess [2]: 0.0174
Bliss excess [3]: -0.0156
Bliss excess [4]: -0.0267
Bliss excess [5]: -0.0466
Bliss excess (SK-N-DZ (Neuroblastoma)): 0.0353
Bliss excess [6]: -0.0169
Bliss excess [7]: -0.001
Bliss excess [8]: -0.0808
Bliss excess (DK-MG (Glioblastoma)): -0.0003
Bliss excess [9]: 0.043
Bliss excess [10]: -0.0942
Bliss excess [11]: -0.0709
Bliss excess (GCIY (Gastric Carcinoma)): 0.111
Bliss excess (C32 (Melanoma)): 0.0075
Bliss excess [12]: -0.0029
Bliss excess [13]: -0.0095
Bliss excess [14]: -0.0256
Bliss excess [15]: -0.0548
Bliss excess [16]: 0.0683

COc1cccc(OCCCN)c1-c1cc(Nc2cnc(C#N)cn2)n[nH]1 [Prexasertib] + CCc1c2c(nc3ccc(O)cc13)-c1cc3c(c(=O)n1C2)COC(=O)[C@]3(O)CC [SN-38] (first compound max 1 µM, 7x7, partner max 0.3 µM)
Bliss excess [1]: -0.0152
Bliss excess [2]: 0.0066
Bliss excess [3]: -0.0357
Bliss excess [4]: -0.0078
Bliss excess [5]: 0.127
Bliss excess (SK-N-DZ (Neuroblastoma)): 0.0205
Bliss excess [6]: -0.0292
Bliss excess [7]: -0.0376
Bliss excess [8]: -0.006
Bliss excess (DK-MG (Glioblastoma)): -0.0146
Bliss excess [9]: -0.0766
Bliss excess [10]: 0.0515
Bliss excess [11]: 0.0007
Bliss excess (GCIY (Gastric Carcinoma)): -0.0379
Bliss excess (C32 (Melanoma)): -0.126
Bliss excess [12]: 0.0171
Bliss excess [13]: -0.0404
Bliss excess [14]: -0.075
Bliss excess [15]: -0.0326
Bliss excess [16]: -0.0226

CC1(C)CCC(CN2CCN(c3ccc(C(=O)NS(=O)(=O)c4ccc(NCC5CCOCC5)c([N+](=O)[O-])c4)c(Oc4cnc5[nH]ccc5c4)c3)CC2)=C(c2ccc(Cl)cc2)C1 [Venetoclax] + Cn1cnc2c(F)c(Nc3ccc(Br)cc3Cl)c(C(=O)NOCCO)cc21 [Selumetinib] (first compound max 1 µM, 7x7, partner max 3 µM)
Bliss excess [1]: -0.031
Bliss excess [2]: 0.0052
Bliss excess [3]: -0.0541
Bliss excess [4]: -0.0208
Bliss excess [5]: 0.161
Bliss excess (SK-N-DZ (Neuroblastoma)): -0.0156
Bliss excess [6]: -0.0584
Bliss excess [7]: -0.0072
Bliss excess [8]: -0.0356
Bliss excess (DK-MG (Glioblastoma)): -0.0177
Bliss excess [9]: -0.032
Bliss excess [10]: -0.0631
Bliss excess [11]: -0.0096
Bliss excess (GCIY (Gastric Carcinoma)): -0.12
Bliss excess (C32 (Melanoma)): -0.0278
Bliss excess [12]: 0.0021
Bliss excess [13]: -0.0491
Bliss excess [14]: -0.039
Bliss excess [15]: -0.0427
Bliss excess [16]: 0.0211

COc1nnc2ccc(N3CCC(c4ccc(OCCN5CCN(C)C(=O)[C@H]5C)cc4)CC3)nn12 [AZD5153] + CC1(C)CCC(CN2CCN(c3ccc(C(=O)NS(=O)(=O)c4ccc(NCC5CCOCC5)c([N+](=O)[O-])c4)c(Oc4cnc5[nH]ccc5c4)c3)CC2)=C(c2ccc(Cl)cc2)C1 [Venetoclax] (first compound max 1 µM, 7x7, partner max 1 µM)
Bliss excess [1]: 0.0135
Bliss excess [2]: -0.0179
Bliss excess [3]: -0.0523
Bliss excess [4]: -0.0458
Bliss excess [5]: 0.0009
Bliss excess (SK-N-DZ (Neuroblastoma)): 0.0059
Bliss excess [6]: -0.0037
Bliss excess [7]: -0.0708
Bliss excess [8]: -0.0824
Bliss excess (DK-MG (Glioblastoma)): -0.0766
Bliss excess [9]: -0.0545
Bliss excess [10]: -0.058
Bliss excess [11]: -0.0579
Bliss excess (GCIY (Gastric Carcinoma)): -0.0592
Bliss excess (C32 (Melanoma)): -0.0383
Bliss excess [12]: -0.0143
Bliss excess [13]: -0.0006
Bliss excess [14]: -0.0316
Bliss excess [15]: -0.0329
Bliss excess [16]: -0.0604

Cn1cnc2c(F)c(Nc3ccc(Br)cc3Cl)c(C(=O)NOCCO)cc21 [Selumetinib] + C[C@@H]1COCCN1C2=NC(=NC(=C2)C3(CC3)[S@](=N)(=O)C)C4=C5C=CNC5=NC=C4 [AZD6738] (first compound max 10 µM, 7x7, partner max 10 µM)
Bliss excess [1]: -0.0196
Bliss excess [2]: -0.0098
Bliss excess [3]: 0.0537
Bliss excess [4]: 0.0042
Bliss excess [5]: 0.0126
Bliss excess (SK-N-DZ (Neuroblastoma)): -0.0083
Bliss excess [6]: -0.0282
Bliss excess [7]: 0.0196
Bliss excess [8]: 0.01
Bliss excess (DK-MG (Glioblastoma)): 0.059
Bliss excess [9]: -0.081
Bliss excess [10]: -0.0121
Bliss excess [11]: 0.0096
Bliss excess (GCIY (Gastric Carcinoma)): -0.0003
Bliss excess (C32 (Melanoma)): 0.0236
Bliss excess [12]: -0.0103
Bliss excess [13]: 0.0306
Bliss excess [14]: -0.0549
Bliss excess [15]: -0.0464
Bliss excess [16]: -0.0612

COc1cccc(OCCCN)c1-c1cc(Nc2cnc(C#N)cn2)n[nH]1 [Prexasertib] + CN(C)CCCOc1ccc(-c2ccc3ncc4c(c3c2)n(C2CCOCC2)c(=O)n4C)cn1 [AZD0156] (first compound max 1 µM, 7x7, partner max 1 µM)
Bliss excess [1]: -0.0172
Bliss excess [2]: -0.0548
Bliss excess [3]: -0.0201
Bliss excess [4]: -0.0041
Bliss excess [5]: -0.0634
Bliss excess (SK-N-DZ (Neuroblastoma)): 0.0108
Bliss excess [6]: -0.069
Bliss excess [7]: -0.0183
Bliss excess [8]: 0.0331
Bliss excess (DK-MG (Glioblastoma)): -0.0104
Bliss excess [9]: -0.0046
Bliss excess [10]: -0.0265
Bliss excess [11]: -0.0086
Bliss excess (GCIY (Gastric Carcinoma)): -0.0072
Bliss excess (C32 (Melanoma)): 0.009
Bliss excess [12]: 0.0385
Bliss excess [13]: -0.0428
Bliss excess [14]: -0.0442
Bliss excess [15]: 0.0156
Bliss excess [16]: -0.0057

Source: the supplement of paper PMC11061612
